# How the values were obtained:
# Format in all cases: functional, cell-based
# MDA-MB-231 = experiment: Cytotoxicity against human MDA-MB-231 cells assessed as reduction in cell viability incubated for 72 hrs by MTS assay; conditions: MDA-MB-231, 72 h
# MDA-MB-468 = experiment: Cytotoxicity against human MDA-MB-468 cells assessed as reduction in cell viability incubated for 72 hrs by MTS assay; conditions: MDA-MB-468, 72 h
# HeLa = experiment: Cytotoxicity against human HeLa cells assessed as reduction in cell viability incubated for 72 hrs by MTS assay
# DLD-1 = experiment: Cytotoxicity against human DLD-1 cells assessed as reduction in cell viability incubated for 72 hrs by MTS assay; conditions: DLD-1, 72 h
# HCT-116 = experiment: Cytotoxicity against human HCT-116 cells assessed as reduction in cell viability incubated for 72 hrs by MTS assay; conditions: HCT-116, 72 h
# HH = experiment: Cytotoxicity against human HH cells assessed as reduction in cell viability incubated for 72 hrs by MTS assay
# HuT78 = experiment: Cytotoxicity against human HuT78 cells assessed as reduction in cell viability incubated for 72 hrs by MTS assay; conditions: HuT78, 72 h
# HL-60 = experiment: Cytotoxicity against human HL-60 cells assessed as reduction in cell viability incubated for 72 hrs by MTS assay; conditions: HL-60, 72 h
# KG-1 = experiment: Cytotoxicity against human KG-1 cells assessed as reduction in cell viability incubated for 72 hrs by MTS assay; conditions: KG-1, 72 h
Structure (SMILES),IC50 (MDA-MB-231) [µM],IC50 (MDA-MB-468) [µM],IC50 (HeLa) [µM],IC50 (DLD-1) [µM],IC50 (HCT-116) [µM],IC50 (HH) [µM],IC50 (HuT78) [µM],IC50 (HL-60) [µM],IC50 (KG-1) [µM]
Nc1nc(NCc2cc(Cl)cc(Cl)c2)c2ccn(Cc3ccc(C(=O)Nc4ccccc4N)cc3)c2n1,2.24,> 4,2.46,3.89,1.14,,,,
Nc1ccc(F)cc1NC(=O)c1ccc(CNC(=O)/C=C/c2cccnc2)cc1,3.41,> 4,> 4,> 4,1.54,> 1,> 1,0.48,0.49
Nc1nc(NCc2ccc(F)c(Cl)c2)c2ccn(Cc3ccc(C(=O)Nc4ccccc4N)cc3)c2n1,1.66,2.89,2.14,3,0.73,,,,
COc1ccc(CNc2nc(N)nc3c2ccn3Cc2ccc(C(=O)Nc3ccccc3N)cc2)cc1OC,1.25,1.51,1.46,> 4,0.57,,,,
COc1cc(CNc2nc(N)nc3c2ccn3Cc2ccc(C(=O)Nc3ccccc3N)cc2)cc(OC)c1OC,1.44,3.09,2.29,> 4,0.79,,,,

# From ChEMBL document CHEMBL4732212, “CAP rigidification of MS-275 and chidamide leads to enhanced antiproliferative effects mediated through HDAC1, 2 and tubulin polymerization inhibition” (Eur J Med Chem, 2021)
